Measurements from patent US9635859B2, “Pesticidal compositions and processes related thereto” (Dow AgroSciences LLC, priority 2012, dated 2017).

test system: Beet Armyworm (Spodoptera exigua); test: Bioassays on BAW, 128-well diet tray assay; type: in vivo; conditions: percent mortality, second instar larvae, 50 μg/cm^2 on artificial diet, five to seven days, 25° C.; Table 3
Method: Certain molecules disclosed in this document were tested against BAW and CEW and CL using procedures described in the following examples. In the reporting of the results, the “BAW & CEW & CL Rating Table” was used (See Table Section).
Bioassays on BAW (Spodoptera exigua)
Bioassays on BAW were conducted using a 128-well diet tray assay. one to five second instar BAW larvae were placed in each well (3 mL) of the diet tray that had been previously filled with 1 mL of artificial diet to which 50 μg/cm^2 of the test compound (dissolved in 50 μL of 90:10 acetone-water mixture) had been applied (to each of eight wells) and then allowed to dry. Trays were covered with a clear self-adhesive cover, and held at 25° C., 14:10 light-dark for five to seven days. Percent mortality was recorded for the larvae in each well; activity in the eight wells was then averaged. The results are indicated in the table entitled “Table 3: Assay Results” (See Table Section).

SMILES | BAW Rating
Cc1cc(/C=C/C(c2cc(Cl)cc(Cl)c2)C(F)(F)F)ccc1C(=O)NCc1nnc(C2CC2)o1 (stereo not drawn) [AC89, (E)-N-((5-Cyclopropyl-1,3,4-oxadiazol-2-yl)methyl)-4-(3-(3,5-dichlorophenyl)-4,4,4-trifluorobut-1-en-1-yl)-2-methylbenzamide] | A (50-100)
FC(F)(F)CNC(=S)CNC(=S)c1ccc(/C=C/C(c2cc(Cl)c(Cl)c(Cl)c2)C(F)(F)F)cc1Br (stereo not drawn) [AC90, (E)-2-Bromo-N-(2-thioxo-2-((2,2,2-trifluoroethyl)amino)ethyl)-4-(4,4,4-trifluoro-3-(3,4,5-trichlorophenyl)but-1-en-1-yl)benzothioamide] | A (50-100)
O=C(CNC(=S)c1ccc(/C=C/C(c2cc(Cl)c(Cl)c(Cl)c2)C(F)(F)F)cc1Br)NCC(F)(F)F (stereo not drawn) [AC91, (E)-2-(2-Bromo-4-(4,4,4-trifluoro-3-(3,4,5-trichlorophenyl)but-1-en-1-yl)phenylthioamido)-N-(2,2,2-trifluoroethyl)acetamide] | A (50-100)
O=C(NCC(=S)NCC(F)(F)F)c1ccc(/C=C/C(c2cc(Cl)c(Cl)c(Cl)c2)C(F)(F)F)cc1Br (stereo not drawn) [AC92, (E)-2-Bromo-N-(2-thioxo-2-((2,2,2-trifluoroethyl)amino)ethyl)-4-(4,4,4-trifluoro-3-(3,4,5-trichlorophenyl)but-1-en-1-yl)benzamide] | A (50-100)
Cc1cc(/C=C\C(c2cc(Cl)cc(Cl)c2)C(F)(F)F)ccc1C(=O)NCC(=O)NC1CC1 (stereo not drawn) [AC93] | A (50-100)
O=C(CNC(=O)c1ccc(/C=C\C(c2cc(Cl)c(Cl)c(Cl)c2)C(F)(F)F)cc1Br)NCC(F)(F)F (stereo not drawn) [AC95, (Z)-2-Bromo-N-(2-oxo-2-((2,2,2-trifluoroethyl)amino)ethyl)-4-(4,4,4-trifluoro-3-(3,4,5-trichlorophenyl)but-1-en-1-yl)benzamide] | A (50-100)
O=C(CNC(=O)c1ccc(/C=C/C(c2cc(Cl)c(F)c(Cl)c2)C(F)(F)F)cc1[N+](=O)[O-])NCC(F)(F)F (stereo not drawn) [AC98] | A (50-100)
O=C(CNC(=O)c1ccc(/C=C/C(c2ccc(F)c(Cl)c2)C(F)(F)F)cc1Br)NCC(F)(F)F (stereo not drawn) [AC99] | A (50-100)
CC(=O)N1CCC(NC(=O)c2ccc(/C=C/C(c3cc(Cl)c(Cl)c(Cl)c3)C(F)(F)F)cc2Br)CC1 (stereo not drawn) [AC103, (E)-N-(1-Acetylpiperidin-4-yl)-2-bromo-4-(4,4,4-trifluoro-3-(3,4,5-trichlorophenyl)but-1-en-1-yl)benzamide] | A (50-100)
O=C(NC1CCN(C(=O)CC(F)(F)F)CC1)c1ccc(/C=C/C(c2cc(Cl)c(Cl)c(Cl)c2)C(F)(F)F)cc1Br (stereo not drawn) [AC104, (E)-2-Bromo-4-(4,4,4-trifluoro-3-(3,4,5-trichlorophenyl)but-1-en-1-yl)-N-(1-(3,3,3-trifluoropropanoyl)piperidin-4-yl)benzamide] | A (50-100)
CN1CCC(NC(=O)c2ccc(/C=C/C(c3cc(Cl)c(Cl)c(Cl)c3)C(F)(F)F)cc2Br)CC1 (stereo not drawn) [AC106, (E)-2-Bromo-N-(1-methylpiperidin-4-yl)-4-(4,4,4-trifluoro-3-(3,4,5-trichlorophenyl)but-1-en-1-yl)benzamide] | A (50-100)
N#CCN1CCC(NC(=O)c2ccc(/C=C/C(c3cc(Cl)c(Cl)c(Cl)c3)C(F)(F)F)cc2Br)CC1 (stereo not drawn) [AC107] | B (More than 0-Less than 50)
O=C(NC1CCN(C2COC2)CC1)c1ccc(/C=C/C(c2cc(Cl)c(Cl)c(Cl)c2)C(F)(F)F)cc1Br (stereo not drawn) [AC108, (E)-2-Bromo-N-(1-(oxetan-3-yl)piperidin-4-yl)-4-(4,4,4-trifluoro-3-(3,4,5-trichlorophenyl)but-1-en-1-yl)benzamide] | B (More than 0-Less than 50)
CONC(=O)CNC(=O)c1ccc(/C=C/C(c2cc(Cl)c(Cl)c(Cl)c2)C(F)(F)F)cc1Br (stereo not drawn) [AC110] | A (50-100)
C=CCNC(=O)CNC(=O)c1ccc(/C=C/C(c2cc(Cl)c(Cl)c(Cl)c2)C(F)(F)F)cc1Br (stereo not drawn) [AC111] | A (50-100)
O=C(NCCc1ccc(Cl)nc1)c1ccc(/C=C/C(c2cc(Cl)c(Cl)c(Cl)c2)C(F)(F)F)cc1Br (stereo not drawn) [AC113] | B (More than 0-Less than 50)
O=C(NC1CCNCC1)c1ccc(/C=C/C(c2cc(Cl)c(Cl)c(Cl)c2)C(F)(F)F)cc1Br (stereo not drawn) [AC114, (E)-2-Bromo-N-(piperidin-4-yl)-4-(4,4,4-trifluoro-3-(3,4,5-trichlorophenyl)but-1-en-1-yl)benzamide] | A (50-100)
Cc1cc(/C=C/C(c2cc(Cl)cc(Cl)c2)C(F)(F)F)ccc1C(=S)NCc1ccc(Cl)nc1 (stereo not drawn) [AC115, (E)-N-((6-Chloropyridin-3-yl)methyl)-4-(3-(3,5-dichlorophenyl)-4,4,4-trifluorobut-1-en-1-yl)-2-methylbenzothioamide] | A (50-100)
Cc1cc(/C=C/C(c2cc(Cl)cc(Cl)c2)C(F)(F)F)ccc1C(=O)N(C)Cc1ccc(Cl)nc1 (stereo not drawn) [AC117] | A (50-100)
Cc1cc(/C=C/C(c2cc(Cl)cc(Cl)c2)C(F)(F)F)ccc1C(=O)NCC1CCCO1 (stereo not drawn) [AC118] | A (50-100)
O=C(CC(F)(F)F)NC1CCCc2cc(/C=C/C(c3cc(Cl)c(Cl)c(Cl)c3)C(F)(F)F)ccc21 (stereo not drawn) [BC5] | A (50-100)
O=C(NC1CCc2cc(/C=C/C(c3cc(Cl)c(Cl)c(Cl)c3)C(F)(F)F)ccc21)C1CC1 (stereo not drawn) [BC6] | A (50-100)
O=C(NC1CCCc2cc(/C=C/C(c3cc(Cl)c(Cl)c(Cl)c3)C(F)(F)F)ccc21)C1CC1 (stereo not drawn) [BC7] | A (50-100)
O=C(CC(F)(F)F)NC1CCc2cc(/C=C/C(c3cc(Cl)c(F)c(Cl)c3)C(F)(F)F)ccc21 (stereo not drawn) [BC8] | A (50-100)

SMILES | BAW Rating
O=C(Cc1ccc(Cl)nc1)NC1CCc2cc(/C=C/C(c3cc(Cl)c(F)c(Cl)c3)C(F)(F)F)ccc21 (stereo not drawn) [BC9] | A (50-100)
Fc1c(Cl)cc(C(/C=C/c2ccc3c(c2)CCC3NCCC(F)(F)F)C(F)(F)F)cc1Cl (stereo not drawn) [BC10, (E)-5-(3-(3,5-Dichloro-4-fluorophenyl)-4,4,4-trifluorobut-1-en-1-yl)-N-(3,3,3-trifluoropropyl)-2,3-dihydro-1H-inden-1-amine] | A (50-100)
O=C(CC(F)(F)F)NCC(=O)n1ccc2cc(/C=C/C(c3cc(Cl)c(F)c(Cl)c3)C(F)(F)F)ccc21 (stereo not drawn) [BC13, (E)-N-(2-(5-(3-(3,5-Dichloro-4-fluorophenyl)-4,4,4-trifluorobut-1-en-1-yl)-1H-indol-1-yl)-2-oxoethyl)-3,3,3-trifluoropropanamide] | A (50-100)
O=C(Cn1ncc2cc(/C=C/C(c3cc(Cl)c(F)c(Cl)c3)C(F)(F)F)ccc2c1=O)NCC(F)(F)F (stereo not drawn) [BC14, (E)-2-(6-(3-(3,5-Dichloro-4-fluorophenyl)-4,4,4-trifluorobut-1-en-1-yl)-1-oxophthalazin-2(1H)-yl)-N-(2,2,2-trifluoroethyl)acetamide] | A (50-100)
O=C(NCc1ccc(/C=C/C(c2cc(Cl)cc(Cl)c2)C(F)(F)F)cc1)C1CC1 (stereo not drawn) [CC2] | A (50-100)
O=C(CC(F)(F)F)NCc1ccc(/C=C/C(c2cc(Cl)cc(Cl)c2)C(F)(F)F)cc1 (stereo not drawn) [CC3] | A (50-100)
CCC(=O)NCc1ccc(/C=C/C(c2cc(Cl)cc(Cl)c2)C(F)(F)F)cc1 (stereo not drawn) [CC4] | A (50-100)
O=C(NCc1ccc(/C=C/C(c2cc(Cl)c(Cl)c(Cl)c2)C(F)(F)F)cc1)C1CC1 (stereo not drawn) [CC5] | A (50-100)
O=C(CC(F)(F)F)NCc1ccc(/C=C/C(c2cc(Cl)c(Cl)c(Cl)c2)C(F)(F)F)cc1 (stereo not drawn) [CC6] | A (50-100)
CC(=O)NCc1ccc(/C=C/C(c2cc(Cl)cc(Cl)c2)C(F)(F)F)cc1Cl (stereo not drawn) [CC7, (E)-N-(2-Chloro-4-(3-(3,5-dichlorophenyl)-4,4,4-trifluorobut-1-en-1-yl)benzyl)acetamide] | A (50-100)
O=C(NCc1ccc(/C=C/C(c2cc(Cl)cc(Cl)c2)C(F)(F)F)cc1Cl)C1CC1 (stereo not drawn) [CC8] | A (50-100)
O=C(CC(F)(F)F)NCc1ccc(/C=C/C(c2cc(Cl)cc(Cl)c2)C(F)(F)F)cc1Cl (stereo not drawn) [CC9] | A (50-100)
O=C(NCc1ccc(/C=C/C(c2cc(Cl)c(Cl)c(Cl)c2)C(F)(F)F)cc1Cl)C1CC1 (stereo not drawn) [CC11] | A (50-100)
O=C(Cc1ccc(Cl)nc1)NCc1ccc(/C=C/C(c2cc(Cl)c(Cl)c(Cl)c2)C(F)(F)F)cc1Cl (stereo not drawn) [CC14] | A (50-100)
O=C(NCc1ccc(/C=C/C(c2cc(Cl)c(F)c(Cl)c2)C(F)(F)F)cc1Cl)C1CC1 (stereo not drawn) [CC15] | A (50-100)
O=C(NCc1ccc(/C=C/C(c2ccc(Cl)c(Cl)c2)C(F)(F)F)cc1Cl)C1CC1 (stereo not drawn) [CC17] | A (50-100)
O=C(CC(F)(F)F)NCc1ccc(/C=C/C(c2ccc(Cl)c(Cl)c2)C(F)(F)F)cc1Cl (stereo not drawn) [CC18] | A (50-100)
CSCCC(=O)NCc1ccc(/C=C/C(c2cc(Cl)c(Cl)c(Cl)c2)C(F)(F)F)cc1Cl (stereo not drawn) [CC19] | A (50-100)
FC(F)(F)C(/C=C/c1ccc(CNC(=S)C2CC2)c(Cl)c1)c1cc(Cl)c(Cl)c(Cl)c1 (stereo not drawn) [CC20] | A (50-100)
O=C(NCc1ccc(/C=C/C(c2cc(Cl)cc(Cl)c2)C(F)(F)F)cc1C(F)(F)F)C1CC1 (stereo not drawn) [CC21] | A (50-100)
O=C(NCc1ccc(/C=C/C(c2cc(Cl)c(Cl)c(Cl)c2)C(F)(F)F)cc1C(F)(F)F)C1CC1 (stereo not drawn) [CC22] | A (50-100)
O=C(NCc1ccc(/C=C/C(c2cc(Cl)c(Cl)c(Cl)c2)C(F)(F)F)cc1C(F)(F)F)c1cccnc1 (stereo not drawn) [CC23] | A (50-100)
O=C(CC(F)(F)F)NCc1ccc(/C=C/C(c2cc(Cl)c(Cl)c(Cl)c2)C(F)(F)F)cc1C(F)(F)F (stereo not drawn) [CC24] | A (50-100)
O=C(CC(F)(F)F)NCc1ccc(/C=C/C(c2cc(Cl)c(Cl)c(Cl)c2)C(F)(F)F)cc1Br (stereo not drawn) [CC25] | A (50-100)
